Experimental data published in patent US8933039B2 (NPS Pharmaceuticals, Inc., priority 1995, dated 2015).
Non-standard residues stand in square brackets, D forms with d. Phg = N[C@H](C(=O)O)c1ccccc1; Tle = CC(C)(C)[C@H](N)C(=O)O; Nva = CCC[C@H](N)C(=O)O; Aib = CC(C)(N)C(=O)O; βAla = NCCC(=O)O

Tested on: dipeptidyl peptidase IV (DPP-IV)
Test: human placental DPP-IV (Calbiochem), 0.125 mU, added to test peptide in PBS at pH 7.4
Settings: 37° C., up to 24 hours

not cleaved [% cleaved by DPP-IV]	cleaved bond	Substance
0	–	[Lys2]hGLP-2(1-33) (H-HKDGSFSDEMNTILDNLAARDFINWLIQTKITD-OH)
0	–	[tBuGly2]hGLP-2 (H-H[Tle]DGSFSDEMNTILDNLAARDFINWLIQTKITD-OH; SMILES CC[C@H](C)[C@H](NC(=O)[C@H](Cc1ccccc1)NC(=O)[C@H](CC(=O)O)NC(=O)[C@H](CCCNC(=N)N)NC(=O)[C@H](C)NC(=O)[C@H](C)NC(=O)[C@H](CC(C)C)NC(=O)[C@H](CC(N)=O)NC(=O)[C@H](CC(=O)O)NC(=O)[C@H](CC(C)C)NC(=O)[C@@H](NC(=O)[C@@H](NC(=O)[C@H](CC(N)=O)NC(=O)[C@H](CCSC)NC(=O)[C@H](CCC(=O)O)NC(=O)[C@H](CC(=O)O)NC(=O)[C@H](CO)NC(=O)[C@H](Cc1ccccc1)NC(=O)[C@H](CO)NC(=O)CNC(=O)[C@H](CC(=O)O)NC(=O)[C@@H](NC(=O)[C@@H](N)Cc1c[nH]cn1)C(C)(C)C)[C@@H](C)O)[C@@H](C)CC)C(=O)N[C@@H](CC(N)=O)C(=O)N[C@@H](Cc1c[nH]c2ccccc12)C(=O)N[C@@H](CC(C)C)C(=O)N[C@H](C(=O)N[C@@H](CCC(N)=O)C(=O)N[C@H](C(=O)N[C@@H](CCCCN)C(=O)N[C@H](C(=O)N[C@H](C(=O)N[C@@H](CC(=O)O)C(=O)O)[C@@H](C)O)[C@@H](C)CC)[C@@H](C)O)[C@@H](C)CC)
0	–	[Asn2]hGLP-2(1-33) (H-HNDGSFSDEMNTILDNLAARDFINWLIQTKITD-OH)
0	–	[Gly2,Ala4]hGLP-2(1-33) (H-HGDASFSDEMNTILDNLAARDFINWLIQTKITD-OH)
0	–	[Ser2]hGLP-2(1-33) (H-HSDGSFSDEMNTILDNLAARDFINWLIQTKITD-OH)
0	–	[Val2]GLP-2(1-33)
0	–	[Asp1]hGLP-2(1-33) (H-DADGSFSDEMNTILDNLAARDFINWLIQTKITD-OH)
0	–	[Glu2]hGLP-2(1-33) (H-HEDGSFSDEMNTILDNLAARDFINWLIQTKITD-OH)
0	–	[Pro1]hGLP-2(1-33) (H-PADGSFSDEMNTILDNLAARDFINWLIQTKITD-OH)
0	–	[D-Ala2]hGLP-2(1-33)
0	–	[Nval2]hGLP-2(1-33) (H-H[Nva]DGSFSDEMNTILDNLAARDFINWLIQTKITD-OH; SMILES CCC[C@H](NC(=O)[C@@H](N)Cc1c[nH]cn1)C(=O)N[C@@H](CC(=O)O)C(=O)NCC(=O)N[C@@H](CO)C(=O)N[C@@H](Cc1ccccc1)C(=O)N[C@@H](CO)C(=O)N[C@@H](CC(=O)O)C(=O)N[C@@H](CCC(=O)O)C(=O)N[C@@H](CCSC)C(=O)N[C@@H](CC(N)=O)C(=O)N[C@H](C(=O)N[C@H](C(=O)N[C@@H](CC(C)C)C(=O)N[C@@H](CC(=O)O)C(=O)N[C@@H](CC(N)=O)C(=O)N[C@@H](CC(C)C)C(=O)N[C@@H](C)C(=O)N[C@@H](C)C(=O)N[C@@H](CCCNC(=N)N)C(=O)N[C@@H](CC(=O)O)C(=O)N[C@@H](Cc1ccccc1)C(=O)N[C@H](C(=O)N[C@@H](CC(N)=O)C(=O)N[C@@H](Cc1c[nH]c2ccccc12)C(=O)N[C@@H](CC(C)C)C(=O)N[C@H](C(=O)N[C@@H](CCC(N)=O)C(=O)N[C@H](C(=O)N[C@@H](CCCCN)C(=O)N[C@H](C(=O)N[C@H](C(=O)N[C@@H](CC(=O)O)C(=O)O)[C@@H](C)O)[C@@H](C)CC)[C@@H](C)O)[C@@H](C)CC)[C@@H](C)CC)[C@@H](C)CC)[C@@H](C)O)
0	–	[Arg-l]ratGLP-2(-1-33) (H-RHADGSFSDEMNTILDNLATRDFINWLIQTKITD-OH)
0	–	[Pro3]hGLP-2(1-33) (H-HAPGSFSDEMNTILDNLAARDFINWLIQTKITD-OH)
–	Ala2-Asp3, 24 hours	[Thr^19]hGLP-2(1-33) (H-HADGSFSDEMNTILDNLATRDFINWLIQTKITD-OH)
0	–	[Met2]hGLP-2(1-33) (H-HMDGSFSDEMNTILDNLAARDFINWLIQTKITD-OH)
0	–	[Aib2]hGLP-2(1-33) (H-H[Aib]DGSFSDEMNTILDNLAARDFINWLIQTKITD-OH; SMILES CC[C@H](C)[C@H](NC(=O)[C@H](Cc1ccccc1)NC(=O)[C@H](CC(=O)O)NC(=O)[C@H](CCCNC(=N)N)NC(=O)[C@H](C)NC(=O)[C@H](C)NC(=O)[C@H](CC(C)C)NC(=O)[C@H](CC(N)=O)NC(=O)[C@H](CC(=O)O)NC(=O)[C@H](CC(C)C)NC(=O)[C@@H](NC(=O)[C@@H](NC(=O)[C@H](CC(N)=O)NC(=O)[C@H](CCSC)NC(=O)[C@H](CCC(=O)O)NC(=O)[C@H](CC(=O)O)NC(=O)[C@H](CO)NC(=O)[C@H](Cc1ccccc1)NC(=O)[C@H](CO)NC(=O)CNC(=O)[C@H](CC(=O)O)NC(=O)C(C)(C)NC(=O)[C@@H](N)Cc1c[nH]cn1)[C@@H](C)O)[C@@H](C)CC)C(=O)N[C@@H](CC(N)=O)C(=O)N[C@@H](Cc1c[nH]c2ccccc12)C(=O)N[C@@H](CC(C)C)C(=O)N[C@H](C(=O)N[C@@H](CCC(N)=O)C(=O)N[C@H](C(=O)N[C@@H](CCCCN)C(=O)N[C@H](C(=O)N[C@H](C(=O)N[C@@H](CC(=O)O)C(=O)O)[C@@H](C)O)[C@@H](C)CC)[C@@H](C)O)[C@@H](C)CC)
0	–	[Gln2]hGLP-2(1-33) (H-HQDGSFSDEMNTILDNLAARDFINWLIQTKITD-OH)
0	–	[bAla2]hGLP-2(1-33) (H-H[βAla]DGSFSDEMNTILDNLAARDFINWLIQTKITD-OH; SMILES CC[C@H](C)[C@H](NC(=O)[C@H](Cc1ccccc1)NC(=O)[C@H](CC(=O)O)NC(=O)[C@H](CCCNC(=N)N)NC(=O)[C@H](C)NC(=O)[C@H](C)NC(=O)[C@H](CC(C)C)NC(=O)[C@H](CC(N)=O)NC(=O)[C@H](CC(=O)O)NC(=O)[C@H](CC(C)C)NC(=O)[C@@H](NC(=O)[C@@H](NC(=O)[C@H](CC(N)=O)NC(=O)[C@H](CCSC)NC(=O)[C@H](CCC(=O)O)NC(=O)[C@H](CC(=O)O)NC(=O)[C@H](CO)NC(=O)[C@H](Cc1ccccc1)NC(=O)[C@H](CO)NC(=O)CNC(=O)[C@H](CC(=O)O)NC(=O)CCNC(=O)[C@@H](N)Cc1c[nH]cn1)[C@@H](C)O)[C@@H](C)CC)C(=O)N[C@@H](CC(N)=O)C(=O)N[C@@H](Cc1c[nH]c2ccccc12)C(=O)N[C@@H](CC(C)C)C(=O)N[C@H](C(=O)N[C@@H](CCC(N)=O)C(=O)N[C@H](C(=O)N[C@@H](CCCCN)C(=O)N[C@H](C(=O)N[C@H](C(=O)N[C@@H](CC(=O)O)C(=O)O)[C@@H](C)O)[C@@H](C)CC)[C@@H](C)O)[C@@H](C)CC)

not cleaved [% cleaved by DPP-IV]	cleaved bond	Substance
0	–	[His2]hGLP-2(1-33) (H-HHDGSFSDEMNTILDNLAARDFINWLIQTKITD-OH)
0	–	[Ile2]hGLP-2(1-33) (H-HIDGSFSDEMNTILDNLAARDFINWLIQTKITD-OH)
0	–	[Gly2,Ala3]hGLP-2(1-33) (H-HGAGSFSDEMNTILDNLAARDFINWLIQTKITD-OH)
0	–	[Gly2, Arg34]hGLP-2(1-34)
0	–	[Gly2]hGLP-2(1-33)
0	–	[Ala1,Gly2]hGLP-2(1-33) (H-AGDGSFSDEMNTILDNLAARDFINWLIQTKITD-OH)
0	–	[Arg-2,Arg-1]ratGLP-2(2-33)
0	–	[Thr2]hGLP-2(1-33) (H-HTDGSFSDEMNTILDNLAARDFINWLIQTKITD-OH)
0	–	[Gly2,Ala24]hGLP-2(1-33) (H-HGDGSFSDEMNTILDNLAARDFIAWLIQTKITD-OH)
0	–	[Gly2, Tyr34]hGLP-2(1-34)
0	–	[Asp2]hGLP-2(1-33) (H-HDDGSFSDEMNTILDNLAARDFINWLIQTKITD-OH)
0	–	[Phe2]hGLP-2(1-33) (H-HFDGSFSDEMNTILDNLAARDFINWLIQTKITD-OH)
0	–	[Gly2,Ala5]hGLP-2(1-33) (H-HGDGAFSDEMNTILDNLAARDFINWLIQTKITD-OH)
0	–	[Tyr2]hGLP-2(1-33) (H-HYDGSFSDEMNTILDNLAARDFINWLIQTKITD-OH)
0	–	Ac-ratGLP-2(1-33) (Ac-HADGSFSDEMNTILDNLATRDFINWLIQTKITD-OH)
0	–	[PhGly2]hGLP-2(1-33) (H-H[Phg]DGSFSDEMNTILDNLAARDFINWLIQTKITD-OH; SMILES CC[C@H](C)[C@H](NC(=O)[C@H](Cc1ccccc1)NC(=O)[C@H](CC(=O)O)NC(=O)[C@H](CCCNC(=N)N)NC(=O)[C@H](C)NC(=O)[C@H](C)NC(=O)[C@H](CC(C)C)NC(=O)[C@H](CC(N)=O)NC(=O)[C@H](CC(=O)O)NC(=O)[C@H](CC(C)C)NC(=O)[C@@H](NC(=O)[C@@H](NC(=O)[C@H](CC(N)=O)NC(=O)[C@H](CCSC)NC(=O)[C@H](CCC(=O)O)NC(=O)[C@H](CC(=O)O)NC(=O)[C@H](CO)NC(=O)[C@H](Cc1ccccc1)NC(=O)[C@H](CO)NC(=O)CNC(=O)[C@H](CC(=O)O)NC(=O)[C@@H](NC(=O)[C@@H](N)Cc1c[nH]cn1)c1ccccc1)[C@@H](C)O)[C@@H](C)CC)C(=O)N[C@@H](CC(N)=O)C(=O)N[C@@H](Cc1c[nH]c2ccccc12)C(=O)N[C@@H](CC(C)C)C(=O)N[C@H](C(=O)N[C@@H](CCC(N)=O)C(=O)N[C@H](C(=O)N[C@@H](CCCCN)C(=O)N[C@H](C(=O)N[C@H](C(=O)N[C@@H](CC(=O)O)C(=O)O)[C@@H](C)O)[C@@H](C)CC)[C@@H](C)O)[C@@H](C)CC)
0	–	[Tyr1, Gly2]hGLP-2(1-33) (H-YGDGSFSDEMNTILDNLAARDFINWLIQTKITD-OH)
